The test system of test [1] is Brassica rapa subsp. oleifera. In words: Growth-promoting activity in Brassica campestris assessed as whole body growth at 25 degC after 1 week by filter paper assay under 12 hrs/12 hrs light-dark cycle condition. Type of test: functional, organism-based.
Test [2] deals with Brassica rapa subsp. oleifera. In words: Growth-promoting activity in Brassica campestris assessed as root growth at 25 degC after 1 week by filter paper assay under 12 hrs/12 hrs light-dark cycle condition. The test is classed as functional, organism-based.

The values below come from ChEMBL document CHEMBL1142608, “A ceramide and cerebroside from the starfish asterias amurensis Lütken and their plant-growth promotion activities” (J Nat Prod, 2006).

Each structure is given as a SMILES string. Calls of active or inactive are those of the source. No cut-off for these calls is given here.

On to `CCCCCCCC/C=C\CCCCCCC/C=C/[C@@H](O)[C@H](CO[C@@H]1O[C@H](CO)[C@@H](O)[C@H](O)[C@H]1O)NC(=O)[C@H](O)CCCCCCCCCCCC`, for which, in test [1], the outcome was Active.
Still for that read-out and setting: next, `CC(C)CC(=O)C[C@@](C)(O)[C@H]1CC[C@H]2[C@@H]3C[C@H](O[C@@H]4O[C@H](C)C(=O)[C@H](O[C@@H]5O[C@H](C)[C@@H](O[C@@H]6O[C@H](C)[C@H](O)[C@H](O)[C@H]6O[C@@H]6O[C@H](C)[C@H](O)[C@H](O)[C@H]6O)[C@H](O)[C@H]5O[C@@H]5O[C@H](C)[C@@H](O)[C@H](O)[C@H]5O)[C@H]4O)[C@H]4C[C@@H](OS(=O)(=O)O)CC[C@]4(C)C3=CC[C@@]21C`: “inactive”; `CCCCCCCC/C=C\CCCCCCC/C=C/[C@@H](O)[C@H](CO[C@@H]1O[C@H](CO)[C@@H](O)[C@H](O)[C@H]1O)NC(=O)[C@H](O)CCCCCCCCCCCCC`: “Active”.
`CCCCCCCC/C=C\CCCCCCCC[C@@H](O)[C@@H](O)[C@H](CO)NC(=O)[C@H](O)CCCCCCCCCCCCCC`: the outcome in test [2] was Active.
Turning to `CCCCCCCC/C=C\CCCCCC/C=C/[C@@H](O)[C@H](CO[C@@H]1O[C@H](CO)[C@@H](O)[C@H](O)[C@H]1O)NC(=O)[C@H](O)CCCCCCCCCCCCCC`, the result in test [1] was Active.
Regarding `CC(C)CC(=O)C[C@@](C)(O)[C@H]1CC[C@H]2[C@@H]3C[C@H](O[C@@H]4O[C@H](C)[C@@H](O)[C@H](O[C@@H]5OC[C@@H](O[C@@H]6O[C@H](CO)[C@H](O)[C@H](O)[C@H]6O[C@@H]6O[C@H](C)[C@@H](O)[C@H](O)[C@H]6O)[C@H](O)[C@H]5O[C@H]5O[C@@H](C)[C@H](O)[C@@H](O)[C@@H]5O)[C@H]4O)[C@H]4C[C@@H](OS(=O)(=O)O)CC[C@]4(C)C3=CC[C@@]21C`, in test [1], the outcome was inactive.
